Patent US20240216336A1, “CLOTRIMAZOLE AS A TREATMENT FOR IMMUNODEFICIENCY DISORDERS” (Northwestern University, priority 2020, published 2024)
Values belong to the compound of their own block, whether it stands above or below them.

Key:
BMDMs [1] = test: Inflammatory cytokine mRNA expression (quantitative RT-PCR) in BMDMs; type: cell-based, mouse
Description: (§1) BMDMs were isolated from ΔE1HK1 and WT mice as previously reported (Rodriguez et al., 2019). Briefly, bone marrow was isolated from the tibia and femur of 8-10-week-old mice by puncturing one end of the femur and tibia with a 27g needle and placing it in a 0.5 ml tube with a hole punched in the bottom. The 0.5 ml tube containing the bone was then placed in a 1.75 ml tube and centrifuged at 5,000×g for 3.5 minutes. Bone marrow was then collected into the 1.75 ml tube and resuspend in 1 ml of RBC lysis buffer (abcam) for 1 minute and then transferred to a 50 ml tube with 4 ml RBC lysis buffer and incubated for 4 minutes. Next, 35 ml of PBS was added and centrifuged at 300×g for 5 min and supernatant was then decanted and cell pellet was re-suspended in complete RPMI with 20 ng/ml mCSF (Preprotech). Cells were counted using a hemocytometer and plated in 10 cm tissue culture plates at a density of 3-million cells/plate. Cells were cultured with 20 ng/mL mCSF to induce differentiation into BMDMs. Media was changed every 2 days and BMDMs were harvested by scraping on day 6 and plated in 12 well plates at a density of 1-million cells/well for mRNA extraction experiments. BMDMs were stimulated in the same manner as peritoneal macrophages (LPS dose for BMDMs was 200 ng/ml).
(§2) RNA was isolated from cells or tissues using RNA-STAT60 (Teltest) followed by chloroform extraction and precipitation. Reverse transcription was carried out using qScript cDNA Synthesis Kit (Quanta Bio). The resulting cDNA was amplified quantitatively using PerfeCTa SYBR Green Mix (Quanta Bio) on a 7500 Fast Real-time PCR System (Applied Biosystems). The relative gene expression was determined using differences in Ct values between gene of interest and house-keeping control genes. Complete list of primers can be found in Key Reagents Table (Table 1).

BMDMs from ΔE1HK1 mice = test: IL-1β ELISA from BMDM media; type: cell-based, mouse; settings: 4 hrs LPS (200 ng/ml) ± 6AN (1 mM) or OT (50 μM), then 30 min ATP (2.5 mM)
Description: as §1, with “Cells were cultured with 20 ng/mL mCSF to induce differentiation into BMDMs. Media was changed every 2 days and BMDMs were harvested by scraping on day 6 and plated in 12 well plates at a density of 1-million cells/well for mRNA extraction experiments. BMDMs were stimulated in the same manner as peritoneal macrophages (LPS dose for BMDMs was 200 ng/ml).” left out
[…] Cell supernatant was collected and analyzed by ELISA according to manufacturer's instructions for IL-1β (DY401), IL-6 (DY406), and TNFα (DY410).
(§3) The following kits were used according to the manufacturer's instructions: Promega NADP/NADPH quantification kit (G9081) and […] (G9071); Glyceraldehyde-3-Phosphate Dehydrogenase Activity Assay kit (abcam); ELISAs for IL-1β (DY401), IL-6 […].

GAPDH [2] = test: GAPDH IP and TMT switch S-nitrosylation western blot in BMDMs; type: cell-based, mouse; settings: LPS (200 ng/ml) treated BMDMs ±1400W
Description: GAPDH immunoprecipitation of HepG2 and BMDM cells was performed and nitrosylated cysteines were replaced with covalent binding of TMT using Pierce S-Nitrosylation western blot kit according to manufactures protocol. Briefly, free cysteines were blocked with MMTS reagent, lysates were treated with iodoTMT/ascorbate to induce replacement of unstable S-NO with stable S-TMT moiety. Western blot was then run on the TMT-replaced lysates and probed with GAPDH (dilution 1:8,000) and anti-TMT (dilution 1:1000).

GAPDH [3] = test: GAPDH activity normalized to total protein in PMs from NC and HFD mice; type: cell-based, mouse; settings: LPS (300 ng/ml) + 1400W (50 μM) for 4 hrs
Description: Peritoneal macrophages were isolated from 8-10-week-old ΔE1HK1 and littermate control WT mice by peritoneal lavage as described previously (Ray and Dittel, 2010). Briefly, mice were euthanized and the peritoneal cavity was injected with PBS supplemented with 5% FBS using a 27g needle. The abdominal wall was gently agitated to dislodge peritoneal cells. Using a fresh 25g needle, the peritoneal lavage (PBS and peritoneal cells) was aspirated and collected. Cells were then centrifuged at 500 g for 10 min and re-suspended in 1 mL of complete RPMI (Corning) supplemented with 10% FBS (Atlanta Biologicals), 2 mM glutamine (HyClone), 1 mM HEPES (Corning) and 1 mM pyruvate (Corning). Stimulation with LPS (Invivogen) was performed the next day. 300 ng/ml of LPS was given to the cells for 4-6 hrs with or without the following drugs; OT (50 μM), 6-AN (1 mM), 1400W (50 μM), or CGP3466 (50 nM).
as §3

PMs = test: IL-1β ELISA from media of PMs from NC and HFD mice; type: cell-based, mouse; settings: LPS (300 ng/ml) 6 hrs and ATP (2.5 mM) 30 min, 1400W
ΔE1HK1 mice = test: In vivo LPS i.p. injection with 1400W: splenic mRNA and serum ELISA of inflammatory cytokines; set-up: species or system mouse; settings: LPS (15 mg/kg) i.p. + 1400W (10 mg/kg) i.p.
Description: as §2
LPS induced sepsis model in mice was approved by Northwestern University Institutional Animal Care and Use Committee. For short term LPS induced cytokine quantification, C57/B16 mice (aged 10-12 weeks) were treated i.p. with or without 1400W (10 mg/kg) for 2 hrs prior to i.p. treatment with ultrapure 05:B55 LPS from Invivogen (15 mg/kg) i.p. for 4 hours. Whole blood samples were harvested via cardiac puncture after mice were euthanized. Cytokine production in serum from whole blood was measured using the Mouse IL-1β (DY401), IL-6 (DY406), and TNFα (DY410) ELISAs from R&D. For survival studies, Crude 05:B55 LPS (Sigma) was administrated i.p. at a sub-lethal dose of 15 mg/kg and mice were monitored over 72 hrs, every 2-4 hrs for survival and signs of deterioration to determine humane endpoints (Shrum et al., 2014).

BMDMs [4] = test: Seahorse ECAR trace of BMDMs; type: cell-based, mouse; settings: 5 hrs LPS (200 ng/ml) ±1400W (50 μM)
Description: The day before the assay, the Seahorse cartridge was placed in the XF calibrant and incubated overnight at 37° C. On the day of the assay, cells were seeded into the Seahorse 96-well plate at 15,000 cells/80 μl per well for HepG2 cells or 100,000 cells/80 μl per well for BMDMs. The plates were incubated at RT for 1 hour in glucose free complete DMEM or RPMI without bicarbonate or phenol-red to allow even distribution of cells across the well floor. Before placing the sample plates in the Seahorse XF96 Analyzer, medium volume was adjusted to 175 μl in each well. 11 mM or 25 mM glucose for HepG2 cells or BMDMs respectively, Oligomycin at 2 μM, CCCP at 10 μM, and 2DG at […] each, diluted in DMEM, were injected sequentially into each well including control wells, containing only medium, following the standard Seahorse protocol. For acute injection of LPS, the first port of the drug cartridge was replaced with LPS at 200 ng/ml.

GAPDH [5] = molecular target: T1, GAPDH (Mus musculus, UniProt P16858); test: GAPDH activity normalized to total protein in BMDMs; type: cell-based; set-up: endogenous in cells
T1 sequence (P16858 whole entry): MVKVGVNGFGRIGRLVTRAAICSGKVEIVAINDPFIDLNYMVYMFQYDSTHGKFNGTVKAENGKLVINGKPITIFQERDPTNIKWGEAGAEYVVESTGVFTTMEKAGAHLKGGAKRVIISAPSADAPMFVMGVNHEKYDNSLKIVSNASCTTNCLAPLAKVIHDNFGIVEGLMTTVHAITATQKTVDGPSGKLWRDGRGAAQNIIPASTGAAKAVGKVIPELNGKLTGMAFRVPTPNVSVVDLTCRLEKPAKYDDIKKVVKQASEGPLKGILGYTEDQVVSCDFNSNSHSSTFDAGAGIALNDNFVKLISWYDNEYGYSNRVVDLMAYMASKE
Description: as §1, with “Media was changed every 2 days and BMDMs were harvested by scraping on day 6 and plated in 12 well plates at a density of 1-million cells/well for mRNA extraction experiments. BMDMs were stimulated in the same manner as peritoneal macrophages (LPS dose for BMDMs was 200 ng/ml).” left out
as §3

RAW264.7 cells = test: Inflammatory cytokine mRNA expression (quantitative RT-PCR) in RAW264.7 cells; type: cell-based, mouse; settings: ±LPS (200 ng/ml) and ±CGP3466 for 4 hrs
Description: (§4) RAW264.7 cells were a gift from Jason A. Wertheim MD, PhD. HepG2 and HEK293T cells were obtained from ATCC. RAW264.7, HEK293T, and HepG2 cells were cultured in Dulbecco's Modified Eagle's Medium (DMEM) (Corning) supplemented with 10% FBS (Atlanta Biologicals), 2 mM glutamine (HyClone), and 1 mM sodium pyruvate (Corning). […]
as §2

GAPDH [6] = molecular target: T1, GAPDH; test: GAPDH activity normalized to total protein in RAW264.7 cells; type: cell-based; set-up: endogenous in cells; host or cells: RAW264.7; settings: LPS (200 ng/ml) ±CGP3466
Description: as §4, §3

[7] = 4 hr 6AN (1 mM) or OT (50 μM), ±LPS (200 ng/ml)
[8] = 16 hrs IFNγ priming, then 4 hrs LPS (200 ng/ml) ± 6AN (1 mM) or OT (50 μM)
[9] = 4 hrs LPS (200 ng/ml) + 1400W (50 μM)

Structure (SMILES): NC(=O)c1ccc(N)nc1 [6AN, 6-aminonicotinamide]
- increase in IL-1β mRNA levels in BMDMs of ΔE1HK1 mice (BMDMs [1]; [7]): abolished
- increase in IL-6 mRNA levels in BMDMs of ΔE1HK1 mice (BMDMs [1]; [7]): abolished
- increase in IL-1β mRNA levels in IFN-γ primed BMDMs of ΔE1HK1 mice (BMDMs [1]; [8]): rescued
- increase in IL-6 mRNA levels in IFN-γ primed BMDMs of ΔE1HK1 mice (BMDMs [1]; [8]): rescued
- IL-1β protein release (ELISA), higher release in ΔE1HK1 BMDMs (BMDMs from ΔE1HK1 mice): reversed

- GAPDH activity of ΔE1HK1 BMDMs (GAPDH [5]; LPS (200 ng/ml) + 1400W (50 μM)): restored to WT levels
Structure (SMILES): CC(N)=NCc1cccc(CN)c1.Cl.Cl [1400W]
- higher GAPDH nitrosylation in BMDMs from ΔE1HK1 mice (GAPDH [2]): reversible
- lower GAPDH activity in PMs of HFD mice (GAPDH [3]): rescued
- elevation in IL-1β in HFD PMs (ELISA) (PMs): reversed
- hyper-inflammatory response in ΔE1HK1 mice, serum ELISA IL-1β (ΔE1HK1 mice): rescue
- hyper-inflammatory response in ΔE1HK1 mice, serum ELISA IL-6 (ΔE1HK1 mice): rescue
- hyper-inflammatory response in ΔE1HK1 mice, serum ELISA TNFα (ΔE1HK1 mice): rescue
- hyper-inflammatory response in ΔE1HK1 mice, splenic IL-1β mRNA (ΔE1HK1 mice): rescue
- hyper-inflammatory response in ΔE1HK1 mice, splenic IL-6 mRNA (ΔE1HK1 mice): rescue
- hyper-inflammatory response in ΔE1HK1 mice, splenic TNFα mRNA (ΔE1HK1 mice): rescue
- differences in ECAR between ΔE1HK1 and WT BMDMs (BMDMs [4]): eliminated the differences
- hyper-inflammatory response of ΔE1HK1 BMDMs, IL-1β mRNA (BMDMs [1]; [9]): reversal
- hyper-inflammatory response of ΔE1HK1 BMDMs, IL-6 mRNA (BMDMs [1]; [9]): reversal
- hyper-inflammatory response of ΔE1HK1 BMDMs, TNFα mRNA (BMDMs [1]; [9]): reversal

- GAPDH activity in RAW264.7 cells (GAPDH [6]): decreased
- difference in GAPDH activity of BMDMs between WT and ΔE1HK1 mice (GAPDH [5]; ±CGP3466 for 4 hrs): abolished
Structure (SMILES): C#CCN(C)CC1=Cc2ccccc2Oc2ccccc21.O=C(O)/C=C\C(=O)O [CGP3466, CGP 3466 maleate (CAS 200189-97-5)]
- increase in IL-1β mRNA with LPS in RAW264.7 cells (RAW264.7 cells): amplified
- IL-1β mRNA expression in WT BMDMs (BMDMs [1]; ±LPS and ±CGP3466 for 4 hrs, compared with ΔE1HK1 BMDMs): increased IL-1β mRNA expression in WT BMDMs to the level of the hyper-inflamed ΔE1HK1 BMDMs
